# Structures can show the parent of a compound that is named as a salt. Where two headings read alike, the source gives them in different places.
# Key:
# [1] = molecular target: Tau binding to heparin (HS-GAG) (Homo sapiens, UniProt P10636); experiment: Inhibition of Tau binding to immobilized heparin-BSA (ELISA); design: species or system porcine; settings: for inhibition at 30 µM: read-out: Tau/Heparin Activity (% inhibition class)
# Description: (§1) Porcine intestinal mucosa heparin conjugated to Bovine Serum Albumin (Heparin-BSA) was prepared as described (Najjam, S. et al. 1997, Cytokine 12, 1013-1022). Heparin is a sulfated HS-GAG and is commonly used as a HS-GAG in biochemical and binding assays (Lindahl, U. and Kjellen, L. (2013) ibid). Heparin-BSA at 0.01 mg/ml in Phosphate Buffered Saline (PBS; pH 7.4) was added to a 96 well polystyrene ELISA plate (NUNC Cat. No. 449824; 100 μl per well) and incubated Over Night (ON) at 4 degrees Celsius. For negative controls, ELISA plates were coated with BSA instead of Heparin-BSA, using the same procedure. Following the incubation, the plate was washed consecutively, by immersion, with de-ionized water and PBS (pH 7.4). The ELISA plate was then blocked with nonfat milk (2%, 200 μl per well) for 2 hours at Room Temperature (RT) with gentle shaking. Following blocking, the plate was washed with de-ionized water then PBS (pH 7.4). GBAPs were dissolved and diluted in PBS (pH 6.5, supplemented with 0.1% BSA) at desired concentrations, added to the ELISA plates containing immobilized Heparin-BSA (100 μl per well) and incubated for 2 hours at RT with gentle shaking. Following incubation, the plate was washed with de-ionized water and three times with PBS (pH 6.5) plus Tween. Bound GBAP was detected by a monoclonal antibody specific for that GBAP, followed by incubation with secondary antibody conjugated to horseradish peroxidase (HRP). Antibody was diluted in PBS (pH 6.5 supplemented with 1% BSA). Following each incubation with antibody, the plate was washed with de-ionized water and three times with PBS (pH 6.5) wash buffer containing 0.1% Tween. The peroxidase substrate chromogen, TMB (Dako Cat. No. S1599) was added (100 μl per well) to the ELISA plate and incubated at room temperature. After 5 minutes ELISA Stop Solution (hydrochloric acid 1N, sulfuric acid 3N) was added (100 μl per well) to stop the peroxidase catalyzed colorimetric reaction. The Optical Density of the samples was measured at 450 nm using an ELISA plate reader (BioTek Synergy H1). Following color development, the % inhibition compared to control (BSA-coated plates) was determined. IC-50s were calculated using GraphPad Prism software.
# The assay was performed as described in Example 43, with the following modifications. Following to coating the plates with Heparin-BSA, plates were washed as described. The compounds were dissolved in DMSO at 10 mM final concentration and further diluted prior to assay. DMSO concentration in the screening well was up to 2%. Individual compounds were co-incubated with Tau on plates containing immobilized heparin. Tau purchased from rPeptide (Cat. No. T1001) was dissolved in DMSO (Sigma Cat. No. D2650), quickly frozen and kept in aliquots at −80 degrees Celsius. Tau dissolved in PBS (pH 6.5, supplemented with BSA, 0.1%) was added to the ELISA plate (100 μl per well) and incubated for 2 hours at RT with gentle shaking. Following the incubation, the plate was washed with de-ionized water and three times with PBS (pH 6.5) plus Tween. Bound Tau was detected by anti-Tau Monoclonal Antibody D-8 (Santa Cruz Cat. No. sc-166060), followed by secondary anti-IgG antibody conjugated to HRP (R&D System, Cat. No. HAF007). Following to color development with TMB, as described in Example 43, the Optical Density of the samples was measured at 450 nm using an ELISA plate reader. Following color development, the % inhibition compared to control (no compound, DMSO control) for every compound was determined.
# An example of inhibition curve is shown in FIG. 3 for Inhibitor Compounds 3 and 6. As described in Example 43, Heparin in the form of Heparin-BSA conjugate is used as a source of HS-GAG. For each compound IC-50 value in Tau—heparin-BSA binding assay is shown in […]. In some cases IC-50 was not measured and […] at 30 μM compound concentration is shown instead. […]
# [2] = molecular target: TDP-43 binding to heparin (HS-GAG) (Homo sapiens, UniProt Q13148); experiment: Inhibition of TDP-43 binding to immobilized heparin-BSA (ELISA); design: species or system porcine; settings: for inhibition at 30 µM: read-out: TDP43/Heparin Activity (% inhibition class); for IC50: TDP-43, heparin-BSA
# Description: as §1
# The assay was performed as described in Example 43, with the following modifications.
# Following to coating the plates with Heparin-BSA, plates were washed as described. The compounds were dissolved in DMSO at 10 mM final concentration and further diluted prior to assay. DMSO concentration in the screening well was up to 2%. Individual compounds were co-incubated with TDP-43 on plates containing immobilized heparin. TDP43 from R&D System (Cat. No. AP-190) was quickly frozen and kept in aliquots at −80 degrees Celsius. TDP-43 dissolved in PBS (pH 6.5, supplemented with BSA, 0.1%) was added to the ELISA plate (100 μl per well) and incubated for 2 hours at RT with gentle shaking. Following the incubation, the plate was washed with de-ionized water and three times with PBS (pH 6.5) plus Tween. Bound TDP-43 was detected by Anti-TDP43 Monoclonal Antibody (R&D System Cat. No. MAB7778), followed by secondary anti-IgG antibody conjugated to HRP (R&D System, Cat. No. HAF007). Following to color development with TMB, as described in Example 43, the Optical Density of the samples was measured at 450 nm using an ELISA plate reader. Following color development, the % inhibition compared to control (no compound, DMSO control) for every compound was determined.
# As described in Example 43, Heparin in the form of Heparin-BSA conjugate is used as a source of HS-GAG. For each compound IC-50 value in TDP-43—heparin-BSA binding assay is shown in μM (micromolar). In some cases IC-50 was not measured and % inhibition at 30 μM compound concentration is shown instead. […] All assays were done on 96-well plates in duplicates and experiments were repeated at least twice. […]
# [3] = Tau/Heparin Activity (IC-50), Tau, heparin-BSA
# [4] = Tau, heparin-BSA, read-out: Tau/Heparin Activity (IC-50)
# [5] = read-out: TDP43/Heparin Activity (IC-50)
# Sequence of Tau binding to heparin (HS-GAG) (P10636 with tags, fused parts or gaps): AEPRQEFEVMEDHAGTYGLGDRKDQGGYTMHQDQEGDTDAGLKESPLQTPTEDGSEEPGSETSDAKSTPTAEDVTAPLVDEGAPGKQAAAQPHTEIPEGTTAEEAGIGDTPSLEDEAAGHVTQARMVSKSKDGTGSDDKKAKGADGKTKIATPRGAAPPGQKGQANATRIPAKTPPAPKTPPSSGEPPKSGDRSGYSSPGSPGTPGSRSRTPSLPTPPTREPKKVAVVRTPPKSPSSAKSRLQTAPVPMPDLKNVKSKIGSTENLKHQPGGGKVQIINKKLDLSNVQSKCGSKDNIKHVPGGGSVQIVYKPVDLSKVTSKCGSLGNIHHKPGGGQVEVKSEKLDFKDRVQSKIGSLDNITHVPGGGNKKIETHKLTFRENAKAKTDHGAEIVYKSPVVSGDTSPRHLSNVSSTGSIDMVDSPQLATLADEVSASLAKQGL
# Sequence of TDP-43 binding to heparin (HS-GAG) (Q13148 whole entry): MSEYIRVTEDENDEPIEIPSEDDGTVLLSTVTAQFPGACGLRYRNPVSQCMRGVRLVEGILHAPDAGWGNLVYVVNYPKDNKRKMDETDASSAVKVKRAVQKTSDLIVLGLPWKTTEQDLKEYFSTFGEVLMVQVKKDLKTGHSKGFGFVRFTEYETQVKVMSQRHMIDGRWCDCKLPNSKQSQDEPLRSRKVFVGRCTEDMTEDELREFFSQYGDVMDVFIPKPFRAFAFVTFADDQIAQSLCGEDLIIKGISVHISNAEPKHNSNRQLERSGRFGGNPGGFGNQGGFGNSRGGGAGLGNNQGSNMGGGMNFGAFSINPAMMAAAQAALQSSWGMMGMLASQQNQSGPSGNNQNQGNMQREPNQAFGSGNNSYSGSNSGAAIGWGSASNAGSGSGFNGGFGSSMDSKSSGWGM
SMILES,inhibition at 30 µM [2],IC50 ([2]; TDP43/Heparin Activity (IC-50)),"IC50 [1, 3]",other results
"C[n+]1ccc(/C=N\Nc2ccnc3ccccc23)cc1 [Compound 9, (Z)-1-methyl-4-((2-(quinolin-4-yl)hydrazono)methyl)pyridin-1-ium iodide]",< 30%,–,–,"inhibition at 30 µM ([1]; 30 μM compound, Tau, heparin-BSA): < 30%"
"Cc1ncn(-c2ncc(Nc3ncnc4cc(Cl)ccc34)cc2O)c1C [Compound 40, 5-((7-chloroquinazolin-4-yl)amino)-2-(4,5-dimethyl-1H-imidazol-1-yl)pyridin-3-ol phosphoric acid salt]",–,7.42 µM,–,inhibition at 30 µM [1]: > 30%
"Fc1ccc2c(N/N=C/c3ccc(-n4ccnc4)cc3)ccnc2c1 [Compound 5, (E)-4-(2-(4-(1H-imidazol-1-yl)benzylidene)hydrazinyl)-7-fluoroquinoline]",–,71.4 µM,31.4 µM,–
"C/C(=N\Nc1ncnc2cc(Cl)ccc12)c1ccc(-n2cnc(C)c2C)nc1 [Compound 16, 7-chloro-4-(2-(1-(6-(4,5-dimethyl-1H-imidazol-1-yl)pyridin-3-yl)ethylidene)hydrazineyl)quinazoline phosphate]",–,2.16 µM,3.92 µM,–
"Cc1ncn(-c2ccc(Nc3ncnc4cc(Cl)ccc34)cn2)c1C [Compound 25, 7-chloro-N-(6-(4,5-dimethyl-1H-imidazol-1-yl)pyridin-3-yl)quinazolin-4-amine]",–,2.45 µM,–,inhibition at 30 µM [1]: < 30%
"COc1cc(Nc2nncc3cc(Cl)ccc23)cnc1-n1cnc(C)c1C [Compound 31, 6-chloro-N-(6-(4,5-dimethyl-1H-imidazol-1-yl)-5-methoxypyridin-3-yl)phthalazin-1-amine phosphoric acid salt]",< 30%,–,33.7 µM,–
"C/C(=N\Nc1ncnc2cc(Cl)ccc12)c1cccc(CN(C)C)c1 [Compound 29, 1-(3-(1-(2-(7-chloroquinazolin-4-yl)hydrazineylidene)ethyl)phenyl)—N,N-dimethylmethanamine]",< 30%,–,32.4 µM,–
"Cc1ncn(-c2ccc(/C=N/Nc3ccnc4cc(Cl)ccc34)cc2)c1C [Compound 2, (E)-7-chloro-4-((E)-(4-(4,5-dimethyl-1H-imidazol-1-yl)benzylidene)hydrazono)-1,4-dihydroquinoline]",–,61.7 µM,4.42 µM,–
"Clc1ccc2c(Nc3ccc(-n4cncn4)nc3)ncnc2c1 [Compound 34, N-(6-(1H-1,2,4-triazol-1-yl)pyridin-3-yl)-7-chloroquinazolin-4-amine phosphoric acid salt]",–,5.23 µM,–,inhibition at 30 µM [1]: < 30%
"C(=N\Nc1ccc2c3c(cccc13)CC2)/c1ccc(-n2ccnc2)cc1 [Compound 8, (E)-1-(4-((2-(1,2-dihydroacenaphthylen-5-yl)hydrazineylidene)methyl)phenyl)-1H-imidazole]",–,10.8 µM,–,inhibition at 30 µM [1]: < 30%
"Clc1ccc2c(N/N=C/c3ccc(-n4ccnc4)cc3)ccnc2c1 [Compound 38, 4-(2-(4-(1H-imidazol-1-yl)benzylidene)hydrazineyl)-7-chloroquinoline dihydrochloride]",–,5.73 µM,2.94 µM,–
"Clc1ccc2c(Nc3ccc(-n4ccnc4)nc3)ncnc2c1 [Compound 41, N-(6-(1H-imidazol-1-yl)pyridin-3-yl)-7-chloroquinazolin-4-amine]",–,–,–,"IC50 [1, 4]: 14.7 µM; IC50 [2, 5]: 4.25 µM"
"CN1CCN(Cc2ccc(/C=N/Nc3ccnc4cc(Cl)ccc34)cc2)CC1 [Compound 7, (E)-7-chloro-4-(2-(4-((4-methylpiperazin-1-yl)methyl)benzylidene)hydrazinyl)quinolone]",< 30%,–,15.5 µM,–
"COc1cc2nccc(N/N=C/c3ccc(-n4ccnc4)c(OC)c3)c2cc1OC [Compound 13, (E)-4-(2-(4-(1H-imidazol-1-yl)-3-methoxybenzylidene)hydrazineyl)-6,7-dimethoxyquinoline phosphate]",< 30%,–,–,inhibition at 30 µM [1]: < 30%
"C/C(=N\Nc1ncnc2cc(Cl)ccc12)c1cccc(N2CCN(C)CC2)c1 [Compound 30, 7-chloro-4-(2-(1-(3-(4-methylpiperazin-1-yl)phenyl)ethylidene)hydrazineyl)quinazoline]",–,12.2 µM,32.2 µM,–
"Clc1ccc2c(Nc3ccc(-n4cncn4)nc3)ccnc2c1 [Compound 44, N-(6-(1H-1,2,4-triazol-1-yl)pyridin-3-yl)-7-chloroquinolin-4-amine]",–,6.54 µM,–,inhibition at 30 µM [1]: > 30%
"CC(=NNc1ncnc2cc(Cl)ccc12)c1ccnc(-n2cnc(C)c2C)c1 [Compound 28, 7-chloro-4-(2-(1-(2-(4,5-dimethyl-1H-imidazol-1-yl)pyridin-4-yl)ethylidene)hydrazineyl)quinazoline]",–,–,–,"IC50 [1, 4]: 61.8 µM; IC50 [2, 5]: 5.73 µM"
"Cc1cc(-n2ccnc2)ccc1/C=N/Nc1ccnc2cc(Cl)ccc12 [Compound 1, (E)-4-((E)-(4-(1H-imidazol-1-yl)-2-methylbenzylidene)hydrazono)-7-chloro-1,4-dihydroquinoline]",–,–,–,"IC50 [1, 4]: 1.38 µM; IC50 [2, 5]: 2.92 µM"
"C[N+](C)(C)Cc1ccc(/C=N\Nc2ccnc3ccc(Cl)cc23)cc1 [Compound 4, (Z)-1-(4-((2-(6-chloroquinolin-4-yl)hydrazineylidene)methyl)phenyl)—N,N,N-trimethylmethanaminium iodide]",< 30%,–,29.2 µM,–
"COc1cc2nccc(NN=Cc3ccc(-n4ccnc4)c(C)c3)c2cc1OC [Compound 11, 4-(2-(4-(1H-imidazol-1-yl)-3-methylbenzylidene)hydrazineyl)-6,7-dimethoxyquinoline hydrochloride]",< 30%,–,3.3 µM,–
"COc1ccc2c(NN=Cc3ccc(-n4ccnc4)c(C)c3)ccnc2c1 [Compound 12, 4-(2-(4-(1H-imidazol-1-yl)-3-methylbenzylidene)hydrazineyl)-7-methoxyquinoline]",< 30%,–,13.1 µM,–

# From patent US20240398783A1, “Compounds and Pharmaceutical Compositions Comprising Inhibitors of Amyloid Peptide Interactions with Glycosaminoglycans, Methods of Treatment and Use Thereof” (Gismo Therapeutics, Inc., priority 2021, published 2024)
